“Also recorded” adds a separate entry of the source.
Columns and labels:
TSPO [1] = target: T1, TSPO (Rattus norvegicus, UniProt P16257); experiment: In vitro autoradiography on rat brain slices; type: binding; conditions: sham rat brain slices; PK11195 14.17 μmol/L, [19F]F-TFQC 12.91 μmol/L; 14.5 nmol/L [18F]F-TFQC; P < 0.001
TSPO [2] = target: T1, TSPO; experiment: Micro PET/CT imaging in KA-induced epileptic rats; type: in vivo, SD rats; conditions: 2 mg/kg i.v. 10 min prior to [18F]F-TFQC, P < 0.05
TSPO [3] = conditions: read-out: human U87MG Ki; cited from earlier work

T1 sequence (P16257 whole entry): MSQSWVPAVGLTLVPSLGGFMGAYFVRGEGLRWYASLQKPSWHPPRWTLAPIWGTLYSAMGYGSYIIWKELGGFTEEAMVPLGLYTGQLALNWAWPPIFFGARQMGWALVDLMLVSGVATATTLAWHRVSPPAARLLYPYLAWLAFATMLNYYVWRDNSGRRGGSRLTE

Compound | blocking of [18F]F-TFQC autoradiography signals (TSPO [1]) | blocking of [18F]F-TFQC radioactivity in the right hippocampus (TSPO [2]) | Ki (TSPO [3])
CCC(C)N(C)C(=O)c1cc2ccccc2c(-c2ccccc2Cl)n1 (stereo not shown) [PK11195, reference compound] | disappeared; also recorded: blocked |  | 
CC[C@@H](C)N(C)C(=O)c1nc(-c2cccc(C(F)(F)F)c2)c2ccccc2n1 [[^19F]F-TFQC, N-((2R)-but-2-yl)-N-methyl-4-(3-(trifluoromethyl)phenyl)quinazoline-2-carboxamide] | disappeared; also recorded: blocked | blocked | 1.19 nM
